The text below walks through data of patent US8138338B2, “Aurora kinase inhibitors from an encoded small molecule library” (GlaxoSmithKline LLC, priority 2006, dated 2012).

The subject of experiment [1] is secretion of TNF-α from LPS-stimulated human monocytes. Briefly: LPS-induced TNF-alpha production in human THP-1 cell line. It is filed as cell-based. Particulars: LPS-stimulated human monocytes (THP-1), 4 hr; read-out: EC50 for inhibition of TNF-α secretion. As to the method: THP-1 (human, monocytic) cell line was purchased from the American Type Culture Collection (ATCC, Cat. No. TIB 202). Cell line was passaged three times per week in RPMI 1640 (GIBCO), supplemented with 10% heat-inactivated fetal bovine serum (FBS; Omega Scientific, Tarzana, Calif.), 2 mM L-glutamine, 100 U/ml penicillin and 100 μg/ml streptomycin (Gibco/Invitrogen, Carlsbad, Calif.) in a humidified incubator with 95% air and 5% CO2 at 37° C.
For the assay THP-1 cells were harvested, counted and suspended at 1E6 cells/ml in culture medium. […] of cell suspension was added to each well at 96 well plates to provide density of 2×10^5 cells per well. Serial dilutions of P38 compounds were prepared at final concentrations in culture medium from a 10 mM stock solution, and assayed in triplicate. Vehicle was prepared by adjusting culture medium to 0.1% v/v DMSO which corresponds to the concentration of DMSO in the wells with test compounds.
Cells were incubated in presence of the P38 inhibitor for 30 min. After that cells were stimulated with LPS (E. coli 026:B6, 1 μg/ml) for 4 hr at 37° C. in a 5% CO2-incubator. Reaction was stopped by placing samples on ice and centrifuging for 10 min at 1500×g at 4° C. Cell supernatants were harvested and concentration of TNF- was determined by ELISA (BD Pharmingen, San Diego, Calif., Cat. No. 555212), following the manufacturer's instruction. Absorbance read and analyzed at 450 nm on a spectrophotometric ELISA plate reader (Labsystems Multiskan MCC/340). Replicate readings were averaged and the results are expressed as a percent of OD signal from control.

Experiment [2] relates to HCT116 (human colorectal cancer cells). Briefly: Cell proliferation assay (MTT) using HCT-116 cell line. It is filed as cell-based. Particulars: 72 h, human carcinoma cell line HCT-116, three days. As to the method: Cell proliferation assay for Aurora-A compounds using HCT-116 Cell Line HCT116 (human colorectal cancer cells) was obtained from the American Type Culture Collection (Cat. No. CCL-247, Rockville, Md.). Cells were maintained in monolayer culture in McCoy's 5A supplemented with 10% fetal bovine serum (FBS; Omega Scientific, Tarzana, Calif.), 2 mM L-glutamine, 50 IU/ml penicillin and 50 μg/ml streptomycin (Gibco/Invitrogen, Carlsbad, Calif.) in a humidified incubator with 95% air and 5% CO2 at 37° C.
A single cell suspension was prepared by trypsinization, to provide 1.25E4 cells per mL in their respective culture medium. 96 well plates were seeded with 200 μl/well of the cell suspension to provide an initial seeding density of 2500 cells per well. The plates were placed in a tissue culture incubator (5% CO2, 37° C.) overnight to let cells become adherent.
Serial dilutions of the testing compounds were prepared at final concentrations in culture medium from a 10 mM stock solution, and assayed in triplicate. The vehicle was prepared by adjusting culture medium to 0.1% v/v DMSO which corresponds to the concentration of DMSO in the wells with test compounds. Test plates were then placed in a tissue culture incubator (5% CO2, 37° C.) for three days after which the MTT assay was performed.
The MTT assay is a measure of cell viability based on cellular dehydrogenase enzymatic cleavage of the tetrazolium rings in MTT the product of which is measured spectrophotometrically. A 25 μL aliquot of 5 mg/mL MTT (3′[4,5-dimethylthiazol-2-yl]-2,5-diphenyl-tetrazolium bromide, Sigma Cat. No. M2128) prepared in PBS was added directly to the wells. The plates were incubated at 37° C. for two hours, the MTT solution was removed, 150 μL of isopropanol was added to each well, and the plates were rocked at room temperature for 10 minutes. The optical density of the wells was quantitated with a Labsystems Multiskan plate spectrophotometer at 570 nm. Replicate readings were averaged. The results are expressed as a percent of OD signal from control.

In the case of `CONC(=O)c1ccc(C)c(Nc2nc(NCC3CCCC(CN)C3)nc(NC3CCCCC3C)n2)c1` (stereo not shown) [Compound 10], the EC50 (as a rule, the concentration that produces a half-maximal response) in experiment [1] amounted to 22 nM.

As to `CONC(=O)c1ccc(C)c(Nc2nc(NCC3CCCC(CN)C3)nc(NC3CCCCC3)n2)c1` (stereo not shown) [Compound 11], in experiment [1], the EC50 worked out at 11 nM.

In turn, `C=CCN(c1nc(NCCc2c[nH]c3ncccc23)nc(NCc2cccn2C)n1)C1CCCCC1` [Compound 3] showed an EC50 in experiment [2] of 10 µM.

In the case of `CONC(=O)c1ccc(C)c(Nc2nc(NCc3cccc(C)c3)nc(N[C@H](C)C(C)(C)C)n2)c1` [Compound 12], in experiment [1], the EC50 stood at 122 nM.

In turn, `COc1ccc(Nc2nc(Nc3ccc4ncccc4c3)nc(NC(Cc3c[nH]c4ncccc34)C(N)=O)n2)cc1OC` (stereo not shown) [Compound 7] came in with an EC50 in experiment [2] of 10 µM.

With `CCCCN(C)c1nc(NCCc2ccccc2OC)nc(NCCc2c[nH]c3ncccc23)n1` [Compound 2], the midpoint of the response in experiment [2], the EC50, lay at 3.6 µM.

As for `CCCCN(C)c1nc(NCCc2ccccc2OC)nc(NC(Cc2c[nH]c3ncccc23)C(N)=O)n1` (stereo not shown) [Compound 1], the response in experiment [2] was half-maximal at 3.6 µM (EC50).
